Consider 26 compounds from patent US20110065739A1, “NOVEL ISOXAZOLE DRIVATIVE” (priority 2008, published 2011).

Counter-ions that a name gives are not always drawn.

One assay concerns the target T1, human GPR120 (Homo sapiens, UniProt Q5NUL3).
T1 construct: expressed in transfected cells
T1 sequence (Q5NUL3 1-361): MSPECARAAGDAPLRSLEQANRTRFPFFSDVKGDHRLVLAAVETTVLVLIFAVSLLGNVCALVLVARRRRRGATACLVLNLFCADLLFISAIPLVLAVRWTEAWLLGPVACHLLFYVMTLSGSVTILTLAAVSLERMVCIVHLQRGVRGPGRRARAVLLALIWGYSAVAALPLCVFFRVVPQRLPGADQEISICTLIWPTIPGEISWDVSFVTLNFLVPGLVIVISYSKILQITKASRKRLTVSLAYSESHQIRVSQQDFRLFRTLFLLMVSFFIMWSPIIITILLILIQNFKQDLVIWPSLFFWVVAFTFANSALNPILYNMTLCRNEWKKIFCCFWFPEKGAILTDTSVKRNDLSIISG
In words: Measurement of intracellular calcium concentration (FLIPR), GPR120 agonist action. It is filed as cell-based. To be noted: 10 μmol/l test compound, human GPR120 expression CHO cells, Fluo-4 AM. As for the experimental part: Using Lipofectamine 2000 (Invitrogen), cDNA of GPR120 receptor was transfected into CHO/NFAT-BLA cells, and drug-resistant cells were isolated to obtain GPR120 stable expression strains. The GPR120-expressed CHO cells were cultured in DMEM/F12 medium containing 10% fetal bovine serum, 100 units/ml penicillin, 0.1 mg/ml streptomycin sulfate, 250 μg/ml Zeocin, 500 μg/mL Geneticin and 15 mM HEPES. On the day before the measurement day, 4 μM Fluo-4 AM (fluorescence calcium indicator reagent) was incubated to be introduced into the human GPR120 expression CHO cells plated at 20000 cells per well of a 96-well black plate (ViewPlate; Packard) in the presence of 2.5 mM probenecid in a CO2 incubator for 1 hour. To the cells was added the test compound diluted with HBSS solution containing 20 mM HEPES and 2.5 mM probenecid. Variations in the intracellular calcium concentration were measured by Fluorescence Imaging Plate Reader (FLIPR; Molecular Devices) to examine the agonist action, and EC50 values were calculated.
For the compound `CC(C)Oc1cccc(C(C)(C)COc2ccc(-c3cc(O)no3)cn2)c1.O=C(O)C(F)(F)F` [Example 44], the “Agonistic activity at 10 μmol/l (%)” value was 99%.

Turning to `CC(C)Cc1cccc(CC(C)Oc2ccc(-c3cc(O)no3)cc2)c1` (centres unmarked) [Example 53, 5-{4-[2-(3-isobutylphenyl)-1-methylethoxy]phenyl}isoxazol-3-01], the “Agonistic activity at 10 μmol/l (%)” value is on record as 100%.

In the case of `CC(C)Oc1cc(CC(C)Oc2ccc(-c3cc(O)no3)cc2)ccn1.Cl` (centres unmarked) [Example 62], the “Agonistic activity at 10 μmol/l (%)” value amounted to 99%.

In the case of “N-[4-(3-hydroxyisoxazol-5-yl)benzyl]-3-isopropoxy-N-methylaniline [Example 65]”, the “Agonistic activity at 10 μmol/l (%)” value came out at 76%.

Turning to “N-[4-(3-hydroxyisoxazol-5-yl)benzyl]-3-isopropoxy-N-methylbenzenesulfonamide [Example 51]”, the “Agonistic activity at 10 μmol/l (%)” value is on record as 77%.

Staying with this assay, now noted: 10 μmol/l test compound, human GPR120 expression CHO cells, Fluo-4 AM, read-out: Agonistic activity at 10 μmol/l (%).
Regarding `CC(C)Oc1cccc(C(C)COc2ccc(-c3cc(O)no3)cn2)c1` (centres unmarked) [Example 40, 5-(6-(2-(3-isopropoxyphenyl)propoxy)pyridin-3-yl)isoxazol-3-ol], the activation at 10 µM is 95%.

Regarding `CC(C)Oc1cccc(C(C)N(C)Cc2ccc(-c3cc(O)no3)cc2)c1` (centres unmarked) [Example 41, 5-(4-{[[1-(3-isopropoxyphenyl)ethyl](methyl)amino]methyl}phenyl)isoxazol-3-ol], the activation at 10 µM came to 87%.

For the compound `CC(C)Oc1cccc(C(=O)COc2ccc(-c3cc(O)no3)cc2)c1` [Example 42, 2-[4-(3-hydroxyisoxazole-5-yl)phenoxy]-1-(3-isopropoxyphenyl)ethanone], the activation at 10 µM was found to be 98%.

`CCOc1cccc(CC(C)Oc2ccc(-c3cc(O)no3)cn2)c1` (centres unmarked) [Example 43, 2-[2-(3-ethoxyphenyl)-1-methylethoxy]-5-(3-hydroxyisoxazole-5-yl)pyridinium Trifluoroacetate]: the activation at 10 µM worked out at 94%.

As to `CC(Cc1cccc(N(C)C)c1)Oc1ccc(-c2cc(O)no2)cc1` (centres unmarked) [Example 45, 3-{2-[4-(3-hydroxyisoxazol-5-yl)phenoxy]propyl}-N,N-dimethylaniline Hydrochloride], the activation at 10 µM amounted to 85%.

With `CC(C)Oc1cccc(C(=O)C(C)Oc2ccc(-c3cc(O)no3)cc2)c1` (centres unmarked) [Example 46, 2-[4-(3-hydroxyisoxazol-5-yl)phenoxy]-1-(3-isopropoxyphenyl)propan-1-one], the activation at 10 µM was found to be 91%.

Take `CC(C)Oc1cccc(C(C)OCc2ccc(-c3cc(O)no3)cc2)c1` (centres unmarked) [Example 47, 5-(4-{[1-(3-isopropoxyphenyl)ethoxy]methyl}phenyl)isoxazol-3-ol]: the activation at 10 µM amounted to 92%.

With `CC(C)Oc1cccc(N(C)CCc2ccc(-c3cc(O)no3)cc2)c1` [Example 48, N-{2-[4-(3-hydroxyisoxazol-5-yl)phenyl]ethyl}-3-isopropoxy-N-methylaniline Trifluoroacetate], the activation at 10 µM came out at 92%.

Turning to `CC(C)Oc1cccc(CN(C)C(C)c2ccc(-c3cc(O)no3)cc2)c1` (centres unmarked) [Example 49, 1-[4-(3-hydroxyisoxazol-5-yl)phenyl]-N-(3-isopropoxybenzyl)-N-methylethanamine Trifluoroacetate], the activation at 10 µM is 84%.

Take `CC(C)Oc1cccc(C(C)SCc2ccc(-c3cc(O)no3)cc2)c1` (centres unmarked) [Example 50, 5-[4-({[1-(3-isopropoxyphenyl)ethyl]thio}methyl)phenyl]isoxazol-3-ol]: the activation at 10 µM came to 80%.

In the case of `CC(C)Oc1cccc(OC(C)Cc2ccc(-c3cc(O)no3)cc2)c1` (centres unmarked) [Example 52, 5-{4-[2-(3-isopropoxyphenoxy)propyl]phenyl}isoxazol-3-ol], the activation at 10 µM turned out to be 96%.

As for `CC(C)Oc1cccc(CC(C)Oc2ccc(-c3cc(O)no3)cc2F)c1` (centres unmarked) [Example 54, 5-{3-fluoro-4-[2-(3-isopropoxyphenyl)-1-methylethoxy]phenyl}isoxazol-3-ol], the activation at 10 µM amounted to 100%.

`CC(C)Oc1cccc(SC(C)Cc2ccc(-c3cc(O)no3)cc2)c1` (centres unmarked) [Example 55, 5-(4-{2-[(3-isopropoxyphenyl)thio]propyl}phenyl)isoxazol-3-ol]: the activation at 10 µM was 101%.

Regarding `CCOc1cccc(CC(C)Oc2ccc(-c3cc(O)no3)cc2F)c1` (centres unmarked) [Example 56, 5-{4-[2-(3-ethoxyphenyl)-1-methylethoxy]-3-fluorophenyl}isoxazol-3-ol], the activation at 10 µM amounted to 96%.

With `CC(C)Oc1cccc(C(F)(F)COc2ccc(-c3cc(O)no3)c(F)c2)c1` [Example 57, 5-{4-[2,2-difluoro-2-(3-isopropoxyphenyl)ethoxy]-2-fluorophenyl}isoxazol-3-ol], the activation at 10 µM is 98%.

Take `CC(C)Oc1cccc(N(C)C(C)Cc2ccc(-c3cc(O)no3)cc2)c1` (centres unmarked) [Example 58, 5-(4-{2-[(3-isopropoxyphenyl)(methyl)amino]propyl}phenyl)isoxazol-3-ol]: the activation at 10 µM was 91%.

Take `CC(Cc1cccc(OC(C)C)c1)Nc1ccc(-c2cc(O)no2)cc1` (centres unmarked) [Example 59, 4-(3-hydroxyisoxazol-5-yl)-N-[2-(3-isopropoxyphenyl)-1-methylethyl]aniline Trifluoroacetate]: the activation at 10 µM worked out at 96%.

Consider `CC(C)Oc1cccc(CCN(C)c2ccc(-c3cc(O)no3)cc2)c1` [Example 60, 4-(3-hydroxyisoxazol-5-yl)-N-[2-(3-isopropoxyphenyl)ethyl]-N-methylaniline Trifluoroacetate], for which the activation at 10 µM was 65%.

With `COc1cc(-c2cc(O)no2)ccc1OC(C)Cc1cccc(OC(C)C)c1` (centres unmarked) [Example 61, 5-{4-[2-(3-isopropoxyphenyl)-1-methylethoxy]-3-methoxyphenyl}isoxazol-3-ol], the activation at 10 µM came out at 79%.

With `CC(C)Oc1cc(C[C@H](C)Oc2ccc(-c3cc(O)no3)cc2)ccn1` [Example 63, 5-(4-(((1S)-1-methyl-2-(2-((1-methylethyl)oxy)pyridin-4-yl)ethyl)oxy)phenyl)isoxazol-3-ol Sodium Salt], the activation at 10 µM turned out to be 106%.

With `CC(C)Oc1cc(C[C@@H](C)Oc2ccc(-c3cc(O)no3)cc2)ccn1` [Example 64, 5-(4-(((1R)-1-methyl-2-(2-((1-methylethyl)oxy)pyridin-4-yl)ethyl)oxy)phenyl)isoxazol-3-ol Sodium Salt], the activation at 10 µM amounted to 104%.
